Data as given in patent US20260035409A1, “BRINP2-DERIVED PEPTIDE COMPOSITIONS FOR TREATING OBESITY AND WEIGHT MANAGEMENT” (The Board of Trustees of the Leland Stanford Junior …, priority 2022, published 2026).
Ends that are not written are not given here.

How the values were obtained:
[1] = acute food intake in fasted lean C57BL/6 mice after I.P. injection; assay type: in vivo; details: 5 mg/kg I.P., up to 6 hours
Procedure: (§1) We next performed in vivo studies to determine whether any of these peptides affected food intake or blood glucose levels—two biological consequences of cfos activation. For acute food intake studies, lean, 8-week-old C57BL/6 mice (N=3/group) were fasted for 16 hours prior to administration of vehicle (saline), GLP-1 at 2 mg/kg, or FGF3_4, EDIL3_4, BRNP2_5, SCG1_9, FSTL4_3, and FGF5_5 peptides at 5 mg/kg. The food intake was then monitored over 6 hours.
Mouse studies. Animal experiments were performed per procedures approved by the Institutional Animal Care and Use Committee of the Stanford Animal Care and Use Committee (APLAC) protocol number #32982. C57BL/6J male mice were purchased from the Jackson Laboratory (#000664) and were used after 1 week of acclimatization after import into the facility. Unless otherwise stated, all mice were in good health and housed in a temperature-controlled (20-22° C.) room on a 12-hour light/dark cycle with ad lib access to food and water.
(§2) For acute experiments, after overnight fasting for 16 hours, 8-week-old C57BL/6 mice were weighed and I.P. injected with either saline, GLP-1 at 2 mg/kg or peptides at 5 mg/kg (N=3 mice per group). Fasted blood glucose and food intake was then monitored for 6 hours.

[2] = tested on: cfos expression in NS-1 cells; assay: cfos expression after 1 h peptide treatment, NS-1 cells (qRT-PCR); assay type: cell-based, rat; details: for cfos activation, alanine substitutions in the BRP sequence: 100 μg/kg, fully active = >15-fold over vehicle
Excerpt: A feature of many known biologically active peptide hormones is the presence of an amidated C-terminus, which can be important for peptide bioactivity, as for gastrin-releasing peptide neuromedin-B, or for increased peptide stability, as for GLP-1. Therefore, the peptide library was constructed with an amide (NH2) group at the C-terminus as the only modification for comparative studies between peptides (FIG. 2a). In total, we generated a library of 100 peptides for functional biological screening. The peptide solubility was deduced according to its overall charge and reconstituted accordingly to optimal solubility. For all peptides, quality control by mass spectrometry was performed which validated the purity of the synthesized peptides for the primary screen according to their theoretical molecular weight (FIG. 8). Next, we functionally explored the potency of 100 of the peptides in activating cfos expression, a marker of cellular activity, after 1 hour of peptide treatment across two cell lines, Neuroscreen-1, NS-1 (rat neuronal origin) and INS1 cells (rat pancreatic origin) (FIG. 2b). Glucagon-like peptide 1 (GLP-1^7-37), a 30-mer peptide ligand for the glucagon receptor family of G protein-coupled receptors in pancreatic 3-cells, was used as a positive control at 30 μM in INS1 cells. NGF (Nerve Growth Factor) was used as a positive control at 2 nM in NS-1 cells. Expectedly, we find that GLP-1^7-37 induces a ˜4-fold elevation of cfos expression in INS1 cells and NGF induces a ˜10-fold induction of cfos expression in NS-1 cells (FIG. 2b). Across the 100 tested peptides, 6 peptides, FGF34, EDIL3_4, BRNP2_5, SCG1_9, FSTL4_3, and FGF5_5 induced more than a >5-fold cfos expression across both cell lines compared with vehicle.
Cell culture. NS-1 rat neuronal cell line was cultured with RPMI 1640 medium (Gibco) supplemented with 10% FBS and 1% L-glutamine. INS-1 832/13 rat insulinoma cell line (#SCC207) was cultured with RPMI 1640 medium (Gibco) supplemented with 10% FBS, 1% L-glutamine, 10 mM HEPES, 1 mM NaPyruvate and 50 μM β-mercaptoethanol. For peptide activity assay, 3×10^5 NS-1 and INS1 cells were plated in 12 well-plates. The next day, cells were washed twice with warm PBS and starved in serum-free RPMI overnight. Indicated concentrations of NGF (2 nM) or GLP-1 (30 μM) or peptides (100 μg/ml) were added and incubated for 1 hr at 37° C. Cells were washed with PBS and RNA was isolated for cfos expression analysis.
RNA expression analysis. Total RNA was isolated using TRIzol (Thermo Fischer Scientific) and Rneasy mini kits (QIAGEN). RNA was reverse transcribed using the ABI high-capacity cDNA synthesis kit. For qRT-PCR analysis, cDNA, primers and SYBR-green fluorescent dye (ABI) was used. Relative mRNA expression was determined by normalization with Ribosomalprotein S18 (Rsp18) levels using the ΔΔCt method. The primer sequences used are […] and […] for Rsp18 and […] and […] for cfos.

[3] = metabolic cages (Columbus comprehensive lab animal monitoring system) after single injection; assay type: in vivo, mice
Procedure: To study the metabolic effects in more detail, we next used metabolic cages performed with a Columbus comprehensive lab animal monitoring system. C57BL6/J mice were acclimated to the cages and randomized into two groups, followed by an I.P. injection with either vehicle (saline) or 5 mg/kg BRP (N=4/group).
Food intake, energy expenditure and body composition measurements. Measurements of accumulated food intake and VO2 were performed using a Comprehensive Lab Animal Monitoring System at room temperature (20-22° C.) (Oxymax, Columbus Instruments) as previously described. Singly housed mice were acclimated in metabolic cages for at least 24 h before the start of experiment to minimize stress.

[4] = open-field assay 30 min after single injection; assay type: in vivo, mice; details: 5 mg/kg I.P., 30 min post-injection
Procedure: Open field assay. 8-week-old C57BL/6 mice were transferred to the open-field facility and housed for 7 days for habituation before the test. Mice were weighed and then I.P. injected with either saline or BRP peptide at 5 mg/kg (N=15 mice per group, […] solution diluted in saline, total injection volume 100 ul per mouse). 30 min post-injection, the open-field test was performed in an Open Field Activity Arena (Med Associates Inc., St. Albans, VT. Model ENV-515) mounted with three planes of infrared detectors and within a specially designed sound-attenuating chamber (Med Associates Inc., St. Albans, VT. MED-017M-027). The arena was 43 cm (L)×43 cm (W)×30 cm (H), and the sound-attenuating chamber was 74 cm (L)×60 cm (W)×60 cm (H). Each mouse was placed in the corner of the testing arena and allowed to explore the arena for 10 minutes while being tracked by an automated tracking system. Data was analyzed using software Activity Monitor Version 7.8. Parameters analyzed include distance moved and time spent in the periphery and center of the arena. The periphery was defined as the zone 5 cm away from the arena wall.

[5] = tested on: cfos expression in INS1 cells; assay: cfos expression after 1 h peptide treatment, INS1 cells (qRT-PCR); assay type: cell-based, rat; details: GLP-1 30 μM
Excerpt: A feature of many known biologically active peptide hormones is the presence of an amidated C-terminus, which can be important for peptide bioactivity, as for gastrin-releasing peptide neuromedin-B, or for increased peptide stability, as for GLP-1. Therefore, the peptide library was constructed with an amide (NH2) group at the C-terminus as the only modification for comparative studies between peptides (FIG. 2a). In total, we generated a library of 100 peptides for functional biological screening. The peptide solubility was deduced according to its overall charge and reconstituted accordingly to optimal solubility. For all peptides, quality control by mass spectrometry was performed which validated the purity of the synthesized peptides for the primary screen according to their theoretical molecular weight (FIG. 8). Next, we functionally explored the potency of 100 of the peptides in activating cfos expression, a marker of cellular activity, after 1 hour of peptide treatment across two cell lines, Neuroscreen-1, NS-1 (rat neuronal origin) and INS1 cells (rat pancreatic origin) (FIG. 2b). […]
RNA expression analysis. […] Relative mRNA expression was determined by normalization with Ribosomalprotein S18 (Rsp18) levels using the ΔΔCt method. […]

[6] = fasting blood glucose in lean C57BL/6 mice after I.P. injection (no food); assay type: in vivo; details: fasted, peptides 5 mg/kg or GLP-1 2 mg/kg I.P.
Procedure: as §1, §2

In the case of “THRILARLFNLC [Ala substitution on residue 6]”, the “food intake, alanine substitutions compared with BRP” value (shortened to “food intake … compared with BRP”) [1] is reported as “reduced efficacy in lowering food intake”.

With “THRILRALFNLC [Ala substitution on residue 7]” the “food intake … compared with BRP” value [1] was “improves the appetite-suppressing effect of BRP”.

In the case of “THRALRRLFNLC [Ala substitution on residue 4]”, the “food intake … compared with BRP” value [1] is reported as “reduced efficacy in lowering food intake”.

In the case of “THAILRRLFNLC [Ala substitution on residue 3]”, the “cfos activation, alanine substitutions in the BRP sequence” value (shortened to “cfos activation, alanine substitutions”) [2] is reported as “important to retain full activity” and the “food intake … compared with BRP” value [1] is reported as “reduced efficacy in lowering food intake”.

In the case of “THRILRRLFALC [Ala substitution on residue 10]”, the “cfos activation, alanine substitutions” value [2] is reported as “important to retain full activity”.

In the case of “THRIARRLFNLC [Ala substitution on residue 5]”, the “food intake … compared with BRP” value [1] is reported as “reduced efficacy in lowering food intake”.

For THRILRRLFNLC-NH2 [BRP, THRILRRLFNLC], the ambulatory activity ([3]; single I.P. injection 5 mg/kg) was “does not alter” and the “anxiety-like behavior (open field)” value [4] was “does not affect anxiety-like behavior”.

In the case of “NGF: Nerve Growth Factor, positive control in NS-1 cells [reference compound]”, the “induction of cfos expression (positive control)” value ([2]; NGF 2 nM) is reported as ~10 fold.

With “THRILRRAFNLC [Ala substitution on residue 8]” the “cfos activation, alanine substitutions” value [2] was “important to retain full activity” and the “food intake … compared with BRP” value [1] was “reduced efficacy in lowering food intake”.

For “THRILRRLFNLA [Ala substitution on residue 12]”, the “cfos activation, alanine substitutions” value [2] was “important to retain full activity” and the “food intake … compared with BRP” value [1] was “reduced efficacy in lowering food intake”.

With “GLP-1: 30-mer peptide ligand for the glucagon receptor family of GPCRs, positive control” the “elevation of cfos expression (positive control)” value [5] was ~4 fold, the blood glucose [6] was “lowered blood glucose” and the energy expenditure ([3]; single injection GLP-1 2 mg/kg) was “without affecting”. For the same substance, the “food intake (metabolic cages)” value ([3]; single injection GLP-1 2 mg/kg) was “acutely suppresses”, the locomotor activity ([3]; single injection GLP-1 2 mg/kg) was “without affecting” and the meal size ([3]; single injection GLP-1 2 mg/kg) was “acutely suppresses”.

In the case of “THRILRRLFNLC (listed as Homo sapiens) [non-amidated BRP]”, the “cfos activity in words” value ([2]; 100 μg/ml) is reported as “no activity”.
